Results reported in patent US8026257B2 (Bristol-Myers Squibb Company, priority 2007, dated 2011).
Where a name gives a salt, the structure may show the parent alone.

Tests used:
[1] = biological target: T1, NK-1 (Homo sapiens, UniProt P25103); assay: NK1 radioligand binding assay ([125I]Substance P, U373 membranes); details: U373 cell membranes, 200 pM [125I]Substance P, 1 hour at room temperature
T1 construct: 30 ul/well of a 2×U373 membrane preparation
Method: (§1) NK-1 Binding assay. Crude membrane suspensions were prepared for the NK1 and SERT radioligand binding assays from U373 cells or recombinant HEK-293 cells expressing hSERT, respectively. Cells were harvested from T-175 flasks as follows. The medium is removed from the flasks and the cells rinsed with HBSS without Ca and without Mg. The cells are then incubated for 5-10 minutes in 10 mM Tris-Cl, pH 7.5, 5 mM EDTA before the cells are lifted with a combination of pipetting and scraping, as needed. To prepare membranes, the cell suspension is collected into centrifuge bottles and homogenized for 30 seconds with a Polytron homogenizer. The suspension is centrifuged for 30 min@32,000×g, 4° C., then the supernatant is decanted and the pellet resuspended and homogenized in 50 mM Tris-Cl, pH 7.5, 1 mM EDTA for 10 seconds. The suspension is then centrifuged again for 30 min@32,000×g, 4° C. The supernatant is decanted and the pellet resuspended in 50 mM Tris-Cl, pH 7.5, 1 mM EDTA and briefly homogenized. A Bradford assay (Bio-rad) is performed and the membrane preparation diluted to 2 mg/ml with 50 mM Tris-Cl, pH 7.5, 1 mM EDTA. Aliquots are prepared, and then frozen and stored at −80° C.
NK1 radioligand binding assay. Compounds are dissolved in 100% DMSO at a concentration 100× the desired highest assay concentration, serially diluted 1:3 in 100% DMSO, and 0.6 ul/well of each solution is dispensed to a Nunc polypropylene, round bottom, 384 well plate. 100% inhibition is defined with 0.6 ul/well of 1 mM L-733,060 (Sigma L-137) dissolved in DMSO. 30 ul/well of a 2×U373 membrane preparation (267 ug/ml in 100 mM Tris-Cl, pH 7.5, 6 mM MgCl2, 0.2% (v/v) Sigma mammalian protease inhibitor cocktail (Sigma P-8340), and 4 ug/ml chymostatin, Sigma C-7268) and 30 ul/well of a 2× radioligand solution (400 pM [^125I]Substance P (Perkin ElmerNEX-190) in 1% (w/v) BSA (Sigma A-2153), 0.1 mg/ml bacitracin, Sigma B-0125) are added to the well and the reaction incubated for 1 hour at room temperature. The contents of the assay plate are then transferred to a Millipore MultiscreenHTS GF/B filter plate which has been pretreated with 0.5% PEI for at least one hour. The plate is vacuum filtered and washed with 7 washes of 100 ul/well of 20 mM Tris-Cl, pH 7.5, 0.5% (w/v) BSA chilled to 4° C. The filtration and washing is completed in less than 90 s. The plates are air-dried overnight, 12 ul/well of MicroScint scintillation fluid added, and the plates counted in a Trilux.
(§2) Data analysis. The raw data are normalized to percent inhibition using control wells defining 0% (DMSO only) and 100% (selective inhibitor) inhibition which are run on each plate. Each plate is run in triplicate, and the concentration response curve thus generated is fit using the four-parameter dose response equation, Y=Bottom+(Top-Bottom)/(1+10^((LogIC50−X)*HillSlope)) in order to determine the IC50 value for each compound. The radioligand concentration chosen for each assay corresponds to the Kd concentration determined through saturation binding analysis for each assay.

[2] = biological target: hSERT (Homo sapiens, UniProt P31645); assay: SERT radioligand binding assay ([125I]RTI-55, HEK-hSERT membranes); details: HEK-293 hSERT membranes, 260 pM [125I]RTI-55, 1 hour at room temperature; read-out: SERT IC50
Method: as §1
SERT radioligand binding assay. Compounds are dissolved in 100% DMSO at a concentration 100× the desired highest assay concentration, serially diluted 1:3 in 100% DMSO, and 0.4 ul/well of each solution is dispensed to a Nunc polypropylene, round bottom, 384 well plate. 100% inhibition is defined with 0.4 ul/well of 1 mM fluoxetine (Sigma F-132) dissolved in DMSO. 20 ul/well of a 2× HEK-hSERT membrane preparation (15 ug/ml in 50 mM Tris-Cl, pH 7.5, 120 mM NaCl, 5mM KCl) and 20 ul/well of a 2× radioligand solution (520 pM [^125I]RTI-55 (Perkin-Elmer NEX-272) in 50 mM Tris-Cl, pH 7.5, 120 mM NaCl, 5mM KCl) are added to each well and the reaction incubated for 1 hour at room temperature. The contents of the assay plate are then transferred to a Millipore MultiscreenHTs GF/B filter plate which has been pretreated with 0.5% PEI for at least one hour. The plate is vacuum filtered and washed with 7 washes of 100 ul/well of 50 mM Tris-Cl, pH 7.5, 120 mM NaCl, 5 mM KCl chilled to 4° C. The filtration and washing is completed in less than 90 s. The plates are air-dried overnight, 12 ul/well of MicroScint scintillation fluid added, and the plates counted in a Trilux.
as §2

T1 sequence (P25103 whole entry): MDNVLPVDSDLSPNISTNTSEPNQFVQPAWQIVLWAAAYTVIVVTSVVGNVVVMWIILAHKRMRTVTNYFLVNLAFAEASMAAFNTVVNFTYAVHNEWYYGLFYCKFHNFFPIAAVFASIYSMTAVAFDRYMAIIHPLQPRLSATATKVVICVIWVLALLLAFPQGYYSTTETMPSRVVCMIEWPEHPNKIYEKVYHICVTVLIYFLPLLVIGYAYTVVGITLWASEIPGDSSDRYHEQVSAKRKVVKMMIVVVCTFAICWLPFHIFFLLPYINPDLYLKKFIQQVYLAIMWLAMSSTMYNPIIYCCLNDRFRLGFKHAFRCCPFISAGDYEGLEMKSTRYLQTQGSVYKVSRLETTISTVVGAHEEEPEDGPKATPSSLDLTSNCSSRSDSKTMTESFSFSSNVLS
Sequence of hSERT (P31645 whole entry): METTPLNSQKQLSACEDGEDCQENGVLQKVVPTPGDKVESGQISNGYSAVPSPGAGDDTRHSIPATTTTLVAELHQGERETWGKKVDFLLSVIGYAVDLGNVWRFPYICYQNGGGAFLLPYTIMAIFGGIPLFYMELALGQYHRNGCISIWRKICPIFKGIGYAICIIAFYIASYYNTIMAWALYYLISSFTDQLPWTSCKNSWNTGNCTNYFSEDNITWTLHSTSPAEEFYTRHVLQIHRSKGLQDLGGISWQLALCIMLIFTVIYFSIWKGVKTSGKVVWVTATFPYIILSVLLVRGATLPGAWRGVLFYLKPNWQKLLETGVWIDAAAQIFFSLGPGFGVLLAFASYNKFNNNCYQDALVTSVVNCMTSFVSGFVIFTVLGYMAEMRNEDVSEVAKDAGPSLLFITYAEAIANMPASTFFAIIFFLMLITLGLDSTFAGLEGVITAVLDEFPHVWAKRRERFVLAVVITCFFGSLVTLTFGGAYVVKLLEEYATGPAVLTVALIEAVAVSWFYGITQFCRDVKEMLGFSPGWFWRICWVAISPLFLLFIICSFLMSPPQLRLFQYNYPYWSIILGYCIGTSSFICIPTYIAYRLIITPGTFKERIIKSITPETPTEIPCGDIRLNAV

| Compound | IC50 [1] [nM] | IC50 [2] [nM] |
| --- | --- | --- |
| Cc1cc(C(C)OCC2(c3ccc(F)cc3)CCN(C)CC2)c2nn(CC(F)F)cc2c1 (racemic) [Example 61, (±)-2-(2,2-Difluoroethyl)-7-(1-((4-(4-fluorophenyl)-1-methylpiperidin-4-yl)methoxy)ethyl)-5-methyl-2H-indazole] | 0.01 to 100 | 0.01 to 100 |
| Cc1cc(C(C)OCC2(c3ccc(F)cc3)CCN(C)CC2)c2c(cnn2CC2CC2)c1 (racemic) [Example 62, (±)-1-(Cyclopropylmethyl)-7-(1-((4-(4-fluorophenyl)-1-methylpiperidin-4-yl)methoxy)ethyl)-5-methyl-1H-indazole] | 0.01 to 100 | 0.01 to 100 |
| Cc1cc(C(C)OCC2(c3ccc(F)cc3)CCN(C)CC2)c2nn(CC3CC3)cc2c1 (racemic) [Example 63, (±)-2-(Cyclopropylmethyl)-7-(1-((4-(4-fluorophenyl)-1-methylpiperidin-4-yl)methoxy)ethyl)-5-methyl-2H-indazole] | 0.01 to 100 | 0.01 to 100 |
| Cc1cc(C(C)OCC2(c3ccc(F)cc3)CCN(C)CC2)c2c(cnn2C2CC2)c1 (racemic) [Example 64, (±)-1-Cyclopropyl-7-(1-((4-(4-fluorophenyl)-1-methylpiperidin-4-yl)methoxy)ethyl)-5-methyl-1H-indazole] | 0.01 to 100 | 0.01 to 100 |
| CC(OCC1(c2ccccc2)CCN(C)CC1)c1cc(C(F)(F)F)cc2cc[nH]c12 (racemic) [Example 70, (±)-7-(1-((1-Methyl-4-phenylpiperidin-4-yl)methoxy)ethyl)-5-(trifluoromethyl)-1H-indole] | 0.01 to 100 | 100 to 300 |
| CC(OCC1(c2ccccc2)CCN(C)CC1)c1cc(C(F)(F)F)cc2ccn(C)c12 (racemic) [Example 71, (±)-1-Methyl-7-(1-((1-methyl-4-phenylpiperidin-4-yl)methoxy)ethyl)-5-(trifluoromethyl)-1H-indole] | 0.01 to 100 | 0.01 to 100 |
| CC(OCC1(c2ccc(F)cc2)CCN(C)CC1)c1cc(C(F)(F)F)cc2cc[nH]c12 (racemic) [Example 72, (±)-7-(1-((4-(4-Fluorophenyl)-1-methylpiperidin-4-yl)methoxy)ethyl)-5-(trifluoromethyl)-1H-indole] | 0.01 to 100 | 0.01 to 100 |
| CC(OCC1(c2ccc(F)cc2)CCN(C)CC1)c1cc(C(F)(F)F)cc2ccn(C)c12 (racemic) [Example 73, (±)-7-(1-((4-(4-Fluorophenyl)-1-methylpiperidin-4-yl)methoxy)ethyl)-1-methyl-5-(trifluoromethyl)-1H-indole] | 0.01 to 100 | 0.01 to 100 |
| CC(OCC1(c2ccc(F)cc2)CCN(C)CC1)c1cc(C(F)(F)F)cc2c1NC(=O)C2 (racemic) [Example 123, (±)-7-(1-((4-(4-fluorophenyl)-1-methylpiperidin-4-yl)methoxy)ethyl)-5-(trifluoromethyl)indolin-2-one] | 0.01 to 100 | 0.01 to 100 |
| CC(OCC1(c2ccc(F)cc2)CCN(C)CC1)c1cc(Cl)cc2c(C#N)c[nH]c12 (racemic) [Example 124, (±)-5-chloro-7-(1-((4-(4-fluorophenyl)-1-methylpiperidin-4-yl)methoxy)ethyl)-1H-indole-3-carbonitrile] | 0.01 to 100 | 0.01 to 100 |
| Cc1c[nH]c2c(C(C)OCC3(c4ccc(F)cc4)CCN(C)CC3)cc(C(F)(F)F)cc12 (racemic) [Example 126, (±)-7-(1-((4-(4-fluorophenyl)-1-methylpiperidin-4-yl)methoxy)ethyl)-3-methyl-5-(trifluoromethyl)-1H-indole] | 0.01 to 100 | 0.01 to 100 |
| CC(OCC1(c2ccc(F)cc2)CCN(C)CC1)c1cc(C(F)(F)F)cc2c1ccn2C (racemic) [Example 127, (±)-4-(1-((4-(4-fluorophenyl)-1-methylpiperidin-4-yl)methoxy)ethyl)-1-methyl-6-(trifluoromethyl)-1H-indole] | 0.01 to 100 | 0.01 to 100 |
| CC(OCC1(c2ccc(F)cc2)CCN(C)CC1)c1cc(C(F)(F)F)cc2[nH]ccc12 (racemic) [Example 128, (±)-4-(1-((4-(4-fluorophenyl)-1-methylpiperidin-4-yl)methoxy)ethyl)-6-(trifluoromethyl)-1H-indole] | 0.01 to 100 | 0.01 to 100 |
| CC(OCC1(c2ccc(F)cc2)CCNCC1)c1cc(C(F)(F)F)cc2c1CC(=O)N2 (racemic) [Example 129, (±)-4-(1-((4-(4-fluorophenyl)piperidin-4-yl)methoxy)ethyl)-6-(trifluoromethyl)indolin-2-one, TFA] | 100 to 300 | 0.01 to 100 |
| CC(OCC1(c2ccc(F)cc2)CCNCC1)c1cc(C(F)(F)F)cc2cn[nH]c12 (single isomer, unassigned) [Example 22, 7-(1-((4-(4-Fluorophenyl)piperidin-4-yl)methoxy)ethyl)-5-(trifluoromethyl)-1H-indazole] | 100 to 300 | 0.01 to 100 |
| CC(OCC1(c2ccc(F)cc2)CCN(C)CC1)c1cc(C(F)(F)F)cc2cn[nH]c12 (single isomer, unassigned) [Example 23, 7-(1-((4-(4-Fluorophenyl)-1-methylpiperidin-4-yl)methoxy)ethyl)-5-(trifluoromethyl)-1H-indazole] | 100 to 300 | 0.01 to 100 |
| CC(OCC1(c2ccc(F)cc2)CCNCC1)c1cc(C(F)(F)F)cc2cn[nH]c12 (single isomer, unassigned) [Example 24, 7-(1-((4-(4-Fluorophenyl)piperidin-4-yl)methoxy)ethyl)-5-(trifluoromethyl)-1H-indazole] | 0.01 to 100 | 0.01 to 100 |
| CC(OCC1(c2ccc(F)cc2)CCN(C)CC1)c1cc(C(F)(F)F)cc2cn[nH]c12 (single isomer, unassigned) [Example 25, 7-(1-((4-(4-Fluorophenyl)-1-methylpiperidin-4-yl)methoxy)ethyl)-5-(trifluoromethyl)-1H-indazole] | 0.01 to 100 | 0.01 to 100 |
| CC(OCC1(c2ccc(F)cc2)CCNCC1)c1cc(C(F)(F)F)cc2cnn(C)c12 (single isomer, unassigned) [Example 26, 7-(1-((4-(4-Fluorophenyl)piperidin-4-yl)methoxy)ethyl)-1-methyl-5-(trifluoromethyl)-1H-indazole] | 100 to 300 | 0.01 to 100 |
| CC(OCC1(c2ccc(F)cc2)CCN(C)CC1)c1cc(C(F)(F)F)cc2cnn(C)c12 (single isomer, unassigned) [Example 27, 7-(1-((4-(4-Fluorophenyl)-1-methylpiperidin-4-yl)methoxy)ethyl)-1-methyl-5-(trifluoromethyl)-1H-indazole] | 100 to 300 | 0.01 to 100 |
| CC(OCC1(c2ccc(F)cc2)CCNCC1)c1cc(C(F)(F)F)cc2cn(C)nc12 (single isomer, unassigned) [Example 28, 7-(1-((4-(4-Fluorophenyl)piperidin-4-yl)methoxy)ethyl)-2-methyl-5-(trifluoromethyl)-2H-indazole] | > 300 | 100 to 300 |
